Assay results reported in patent US20230340012A1, “NATURAL AND SYNTHETIC COMPOUNDS FOR TREATING CANCER AND OTHER DISEASES” (PACIFIC ARROW LIMITED, priority 2009, published 2023).

Test system: cancer cells
Assay: MTT cytotoxic assay of esterification products (Cytotoxicity activity)
Format: cell-based, human
Details: MTT cytotoxic assay, isolated esterification products of E4A
Excerpt: The peaks, fractions and compounds are selected according to the activities of times studies and the changes of peaks. Selecting the HPLC fractions for isolation is according to the cytotoxic activity of the reaction product obtained at a specific time. The compounds having strong to weak activities are selected and isolated. Selecting the HPLC fractions for isolation may be according to the cytotoxic activity of times studies and the change of peaks. The anti-cancer activities are the MTT studies of bone (U2OS), lung (H460), bladder (HTB-9), ovary (ES2), colon (HCT116), pancreas (Capan), ovary(OVCAR3), prostate (DU145), skin (SK-Mel-5), mouth (KB), kidney (A498), breast (MCF-7), liver (HepG2), brain (T98G), leukemia (K562), cervix (HeLa).
Esterification of compound (A), (B), (C), (D1), (D2), (E), (F), (G), (H1), (H2), E4A, E4A2Y, (P1), P(2), terpene, isoprene, triterpenes, hydroxylated triterpenes, with acyl halide, wherein the halide comprise chloride, bromide, fluoride and iodide, wherein the acyl halide comprise acyl chloride, wherein acyl chloride comprise tigloyl chloride, angeloyl chloride, acetyl chloride, crotonoyl chloride, 3,3-Dimethylacryloyl chloride, senecioyl chloride, cinnamoyl chloride, pentenoyl chloride, hexanoyl chloride, benzoyl chloride, ethylbutyryl chloride, propionyl chloride, 2-propenoyl chloride, isobutyryl chloride, butyryl chloride, (2E)-2-pentenoyl chloride, 4-Pentenoyl chloride, 5-hexenoyl chloride, heptanoyl chloride, octanoyl chloride, nonanoyl chloride, decanoyl chloride, Lauroyl chloride, myristoyl chloride, oleoyl chloride. The compounds vary in composition when the time or temperature of the reaction is changed. The peaks, fractions and compounds are selected according to the activities of times studies and the changes of peaks. The compounds having strong to weak activities are selected and isolated. The anti-cancer activities (Cytotoxic Assay) are the MTT studies of bone (U2OS), lung (H460), bladder(HTB-9), ovary (ES2), colon (HCT116), pancreas (Capan), ovary(OVCAR3), prostate (DU145), skin (SK-Mel-5), mouth (KB), kidney (A498), breast (MCF-7), liver (HepG2), brain (T98G), leukemia (K562), cervix (HeLa). The active esterification products are purified with HPLC. The reaction product of mixtures and individual compounds are tested with MTT Cytotoxic Assay. Details of method are in Experiment 3 of the present application. A second esterification of compound can be selected from the above experiment results to produce new active compounds. A partial esterification compound is selected from the above experiments to perform a second or repeated with a third esterification with different acyl chloride in order to produce new active compounds with the experiments in the present application.
Method: 40 mg of triterpene core (fraction IV) was dissolved in 1 ml pyridine in a 50 ml tube. Reaction is started by adding 0.2 ml of acyl chloride (Tigloyl chloride, angeloyl chloride, Acetyl chloride, Crotonoyl chloride, 3,3-Dimethylacryloyl chloride(senecioyl chloride), Cinnamoyl chloride, Pentenoyl chloride, Hexanoyl chloride, benzoyl chloride or Ethylbutyryl chloride). The mixture is stirred for 5 sec, 1 min, 2 min, 5 min, 10 min, 30 min, 1 hr, 2 hr, 18 hr, 2 days or 3 days at 0° C., 25° C. or 75° C. temperature. At the end of reaction, 5 ml of 2N HCl or 1 M NaHCO3 is added to the reaction mixture. The solution is then extracted 3 times with 10 ml of ethyl acetate which is then evaporated under vacuum and at 45C and lyophilization. The reaction product is dissolved in 80% acetonitrile - 0.005% Trifluoroacetic acid or DMSO; and was separated with HPLC. Selecting the HPLC fractions for isolation is according to the cytotoxic activity of the reaction product obtained at a specific reaction time. The active esterification products are purified with HPLC. The reaction product of mixtures and individual compounds are tested with MTT cytotoxic assay. Structures are determined with NMR. […]

SMILES | Cytotoxicity activity
C=CCCC(=O)OCC1(C)C(OC(=O)CCC=C)CCC2(C)C1CCC1(C)C2CC=C2C3CC(C)(C)C(O)C(OC(=O)CCC=C)C3(COC(=O)CCC=C)C(O)CC21C (stereo not drawn) [Compound C9] | weak
C=CCCC(=O)OCC1(C)C(OC(=O)CCC=C)CCC2(C)C1CCC1(C)C2CC=C2C3CC(C)(C)C(O)C(O)C3(COC(=O)CCC=C)C(OC(=O)CCC=C)CC21C (stereo not drawn) [Compound C10] | weak
C=CCCC(=O)OCC1(C)C(OC(=O)CCC=C)CCC2(C)C1CCC1(C)C2CC=C2C3CC(C)(C)C(OC(=O)CCC=C)C(O)C3(COC(=O)CCC=C)C(O)CC21C (stereo not drawn) [Compound C11] | weak
C=CCCC(=O)OCC1(C)C(O)CCC2(C)C1CCC1(C)C2CC=C2C3CC(C)(C)C(O)C(OC(=O)CCC=C)C3(COC(=O)CCC=C)C(OC(=O)CCC=C)CC21C (stereo not drawn) [Compound C12] | weak
C=CCCC(=O)OCC1(C)C(O)CCC2(C)C1CCC1(C)C2CC=C2C3CC(C)(C)C(OC(=O)CCC=C)C(O)C3(COC(=O)CCC=C)C(OC(=O)CCC=C)CC21C (stereo not drawn) [Compound C13] | weak
C=CCCC(=O)OCC1(C)C(OC(=O)CCC=C)CCC2(C)C1CCC1(C)C2CC=C2C3CC(C)(C)C(O)C(OC(=O)CCC=C)C3(COC(=O)CCC=C)C(O)CC21C (stereo not drawn) [Compound C14] | weak
C=CCCC(=O)OCC1(C)C(OC(=O)CCC=C)CCC2(C)C1CCC1(C)C2CC=C2C3CC(C)(C)C(OC(=O)CCC=C)C(OC(=O)CCC=C)C3(COC(=O)CCC=C)C(O)CC21C (stereo not drawn) [Compound C15] | weak
C=CCCC(=O)OCC1(C)C(O)CCC2(C)C1CCC1(C)C2CC=C2C3CC(C)(C)C(OC(=O)CCC=C)C(OC(=O)CCC=C)C3(COC(=O)CCC=C)C(OC(=O)CCC=C)CC21C (stereo not drawn) [Compound C16] | weak
C=CCCC(=O)OCC1(C)C(OC(=O)CCC=C)CCC2(C)C1CCC1(C)C2CC=C2C3CC(C)(C)C(OC(=O)CCC=C)C(O)C3(COC(=O)CCC=C)C(OC(=O)CCC=C)CC21C (stereo not drawn) [Compound C17] | weak
C=CCCC(=O)OCC1(C)C(OC(=O)CCC=C)CCC2(C)C1CCC1(C)C2CC=C2C3CC(C)(C)C(O)C(OC(=O)CCC=C)C3(COC(=O)CCC=C)C(OC(=O)CCC=C)CC21C (stereo not drawn) [Compound C18] | weak
C=CCCC(=O)OCC1(C)C(OC(=O)CCC=C)CCC2(C)C1CCC1(C)C2CC=C2C3CC(C)(C)C(OC(=O)CCC=C)C(OC(=O)CCC=C)C3(COC(=O)CCC=C)C(OC(=O)CCC=C)CC21C (stereo not drawn) [Compound C19] | none
C=CCCC(=O)OCC12C(O)CC3(C)C(=CCC4C5(C)CCC(O)C(C)(CO)C5CCC43C)C1CC(C)(C)C(OC(=O)CCC=C)C2OC(=O)CCC=C (stereo not drawn) [Compound C20] | moderate
C=CCCC(=O)OCC1(C)C(O)CCC2(C)C1CCC1(C)C2CC=C2C3CC(C)(C)C(OC(=O)CCC=C)C(OC(=O)CCC=C)C3(CO)C(O)CC21C (stereo not drawn) [Compound C21] | moderate
C=CCCC(=O)OC1C(OC(=O)CCC=C)C2(CO)C(OC(=O)CCC=C)CC3(C)C(=CCC4C5(C)CCC(O)C(C)(CO)C5CCC43C)C2CC1(C)C (stereo not drawn) [Compound C22] | moderate
C=CCCC(=O)OC1C(OC(=O)CCC=C)C2(CO)C(O)CC3(C)C(=CCC4C5(C)CCC(OC(=O)CCC=C)C(C)(CO)C5CCC43C)C2CC1(C)C (stereo not drawn) [Compound C23] | moderate
CCCCCC(=O)OC1C(OC(=O)CCCCC)C2(CO)C(OC(=O)CCCCC)CC3(C)C(=CCC4C5(C)CCC(O)C(C)(CO)C5CCC43C)C2CC1(C)C (stereo not drawn) [Compound D22] | moderate
CCCCCC(=O)OC1C(OC(=O)CCCCC)C2(CO)C(O)CC3(C)C(=CCC4C5(C)CCC(OC(=O)CCCCC)C(C)(CO)C5CCC43C)C2CC1(C)C (stereo not drawn) [Compound D23] | moderate
CCCCCC(=O)OC1C(OC(=O)CCCCC)C2(CO)C(O)CC3(C)C(=CCC4C5(C)CCC(O)C(C)(CO)C5CCC43C)C2CC1(C)C (stereo not drawn) [Compound D24] | moderate

SMILES | Cytotoxicity activity
CCCCCC(=O)OCC12C(O)CC3(C)C(=CCC4C5(C)CCC(O)C(C)(CO)C5CCC43C)C1CC(C)(C)C(OC(=O)CCCCC)C2O (stereo not drawn) [Compound D25] | moderate
CCCCCC(=O)OCC12C(O)CC3(C)C(=CCC4C5(C)CCC(O)C(C)(CO)C5CCC43C)C1CC(C)(C)C(O)C2OC(=O)CCCCC (stereo not drawn) [Compound D26] | moderate
CCCCCC(=O)OCC12C(O)CC3(C)C(=CCC4C5(C)CCC(OC(=O)CCCCC)C(C)(CO)C5CCC43C)C1CC(C)(C)C(O)C2O (stereo not drawn) [Compound D27] | moderate
CCCCCC(=O)OCC12C(OC(=O)CCCCC)CC3(C)C(=CCC4C5(C)CCC(O)C(C)(CO)C5CCC43C)C1CC(C)(C)C(O)C2O (stereo not drawn) [Compound D28] | moderate
CCCCCC(=O)OCC1(C)C(O)CCC2(C)C1CCC1(C)C2CC=C2C3CC(C)(C)C(OC(=O)CCCCC)C(O)C3(CO)C(O)CC21C (stereo not drawn) [Compound D29] | moderate
CCCCCC(=O)OCC1(C)C(O)CCC2(C)C1CCC1(C)C2CC=C2C3CC(C)(C)C(O)C(OC(=O)CCCCC)C3(CO)C(O)CC21C (stereo not drawn) [Compound D30] | moderate
CCCCCC(=O)OCC1(C)C(OC(=O)CCCCC)CCC2(C)C1CCC1(C)C2CC=C2C3CC(C)(C)C(O)C(O)C3(CO)C(O)CC21C (stereo not drawn) [Compound D31] | moderate
CCCCCC(=O)OCC1(C)C(O)CCC2(C)C1CCC1(C)C2CC=C2C3CC(C)(C)C(O)C(O)C3(CO)C(OC(=O)CCCCC)CC21C (stereo not drawn) [Compound D32] | moderate
CCC(CC)C(=O)OCC1(C)C(O)CCC2(C)C1CCC1(C)C2CC=C2C3CC(C)(C)C(O)C(O)C3(CO)C(O)CC21C (stereo not drawn) [Compound E1] | moderate
CCC(CC)C(=O)OCC12C(O)CC3(C)C(=CCC4C5(C)CCC(O)C(C)(CO)C5CCC43C)C1CC(C)(C)C(O)C2O (stereo not drawn) [Compound E2] | moderate
CCC(CC)C(=O)OCC1(C)C(O)CCC2(C)C1CCC1(C)C2CC=C2C3CC(C)(C)C(O)C(O)C3(COC(=O)C(CC)CC)C(O)CC21C (stereo not drawn) [Compound E3] | strong
CCC(CC)C(=O)OCC1(C)C(O)CCC2(C)C1CCC1(C)C2CC=C2C3CC(C)(C)C(OC(=O)C(CC)CC)C(O)C3(COC(=O)C(CC)CC)C(O)CC21C (stereo not drawn) [Compound E4] | moderate
CCC(CC)C(=O)OCC1(C)C(O)CCC2(C)C1CCC1(C)C2CC=C2C3CC(C)(C)C(O)C(OC(=O)C(CC)CC)C3(COC(=O)C(CC)CC)C(O)CC21C (stereo not drawn) [Compound E5] | moderate
CCC(CC)C(=O)OCC1(C)C(OC(=O)C(CC)CC)CCC2(C)C1CCC1(C)C2CC=C2C3CC(C)(C)C(O)C(O)C3(COC(=O)C(CC)CC)C(O)CC21C (stereo not drawn) [Compound E6] | moderate
CCC(CC)C(=O)OCC1(C)C(O)CCC2(C)C1CCC1(C)C2CC=C2C3CC(C)(C)C(O)C(O)C3(COC(=O)C(CC)CC)C(OC(=O)C(CC)CC)CC21C (stereo not drawn) [Compound E7] | moderate
CCC(CC)C(=O)OCC1(C)C(O)CCC2(C)C1CCC1(C)C2CC=C2C3CC(C)(C)C(OC(=O)C(CC)CC)C(OC(=O)C(CC)CC)C3(COC(=O)C(CC)CC)C(O)CC21C (stereo not drawn) [Compound E8] | weak
CCC(CC)C(=O)OCC1(C)C(OC(=O)C(CC)CC)CCC2(C)C1CCC1(C)C2CC=C2C3CC(C)(C)C(O)C(OC(=O)C(CC)CC)C3(COC(=O)C(CC)CC)C(O)CC21C (stereo not drawn) [Compound E9] | weak
CCC(CC)C(=O)OCC1(C)C(OC(=O)C(CC)CC)CCC2(C)C1CCC1(C)C2CC=C2C3CC(C)(C)C(O)C(O)C3(COC(=O)C(CC)CC)C(OC(=O)C(CC)CC)CC21C (stereo not drawn) [Compound E10] | weak
